According to PubChem BioAssay AID2060487 (Molecular Pharmacology Branch, DTP, NCI, 2025):

Test system: 997537-175-T-J1-PDC complex spheroid viability
Assay: Anticancer human tumor 997537-175-T-J1-PDC patient-derived colon adenocarcinoma cell line growth inhibition [GQUAD]
Conditions: for IC50: curve of first compound; for viability, T/C: stronger effect = lower value
Outline: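 Viability of tumor cells grown as complex spheroids with endothelial and stromal cells, exposed to drug combinations. Top concentration at or near clinical Cmax (else 10 microM), diluted in half-log increments.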

[1] = second compound 0.0316 µM, first compound 0.0316 µM
[2] = second compound 0.0316 µM, first compound 0.1 µM
[3] = second compound 0.0316 µM, first compound 0.316 µM
[4] = second compound 0.0316 µM, first compound 1 µM
[5] = second compound 0.0316 µM, first compound 3.16 µM
[6] = second compound 0.0316 µM, first compound 10 µM
[7] = second compound 0.1 µM, first compound 0.0316 µM
[8] = second compound 0.1 µM, first compound 0.1 µM
[9] = second compound 0.1 µM, first compound 0.316 µM
[10] = second compound 0.1 µM, first compound 1 µM
[11] = second compound 0.1 µM, first compound 3.16 µM
[12] = second compound 0.1 µM, first compound 10 µM
[13] = second compound 0.316 µM, first compound 0.0316 µM
[14] = second compound 0.316 µM, first compound 0.1 µM
[15] = second compound 0.316 µM, first compound 0.316 µM
[16] = second compound 0.316 µM, first compound 1 µM
[17] = second compound 0.316 µM, first compound 3.16 µM
[18] = second compound 0.316 µM, first compound 10 µM
[19] = second compound 1 µM, first compound 0.0316 µM
[20] = second compound 1 µM, first compound 0.1 µM
[21] = second compound 1 µM, first compound 0.316 µM
[22] = second compound 1 µM, first compound 1 µM
[23] = second compound 1 µM, first compound 3.16 µM
[24] = second compound 1 µM, first compound 10 µM
[25] = second compound 3.16 µM, first compound 0.0316 µM
[26] = second compound 3.16 µM, first compound 0.1 µM
[27] = second compound 3.16 µM, first compound 0.316 µM
[28] = second compound 3.16 µM, first compound 1 µM
[29] = second compound 3.16 µM, first compound 3.16 µM
[30] = second compound 3.16 µM, first compound 10 µM
[31] = second compound 10 µM, first compound 0.0316 µM
[32] = second compound 10 µM, first compound 0.1 µM
[33] = second compound 10 µM, first compound 0.316 µM
[34] = second compound 10 µM, first compound 1 µM
[35] = second compound 10 µM, first compound 3.16 µM
[36] = second compound 10 µM, first compound 10 µM
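Also: spheroids exposed to the agents for 7 days.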
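For viability, T/C in this document: 100% = DMSO vehicle control viability.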

`O=C(NO)c1cnc(N2CCN(S(=O)(=O)c3ccc4ccccc4c3)CC2)nc1` + Cc1cnc(CNC(=O)c2c(=O)c3ccc(N4CCCN(C)CC4)nc3n3c2sc2ccccc23)cn1 was tested, and the IC50 (second compound 0.0316 µM) was 1930 nM, the IC50 (second compound 0.1 µM) was 2110 nM and the IC50 (second compound 0.316 µM) was 4010 nM. It also gave an IC50 (second compound 1 µM) of 1960 nM, an IC50 (second compound 3.16 µM) of 1840 nM and an IC50 (second compound 10 µM) of 1620 nM. For the same compound, the viability, T/C [1] was 107%, the viability, T/C [2] was 92.3% and the viability, T/C [3] was 96.3%. For the same compound, the viability, T/C [4] was 81.2%, the viability, T/C [5] was 26.8% and the viability, T/C [6] was 0.4%. For the same compound, the viability, T/C [7] was 105%, the viability, T/C [8] was 97% and the viability, T/C [9] was 80.7%. For the same compound, the viability, T/C [10] was 69%, the viability, T/C [11] was 41.7% and the viability, T/C [12] was 0.47%. For the same compound, the viability, T/C [13] was 94.7%, the viability, T/C [14] was 100% and the viability, T/C [15] was 85.6%. It also gave a viability, T/C [16] of 73.2%, a viability, T/C [17] of 69.8% and a viability, T/C [18] of 0.31%. The viability, T/C [19] was 83.9%, the viability, T/C [20] was 90% and the viability, T/C [21] was 104%. For the same compound, the viability, T/C [22] was 93%, the viability, T/C [23] was 19.4% and the viability, T/C [24] was 0.31%. The viability, T/C [25] was 104%, the viability, T/C [26] was 116% and the viability, T/C [27] was 93.5%. The viability, T/C [28] was 83.2%, the viability, T/C [29] was 21.4% and the viability, T/C [30] was 1.15%. The viability, T/C [31] was 108%, the viability, T/C [32] was 88.7% and the viability, T/C [33] was 103%. For the same compound, the viability, T/C [34] was 77.5%, the viability, T/C [35] was 11.4% and the viability, T/C [36] was 0.29%.
Compound `COc1cc(C2c3cc4c(cc3C(OC3OC5COC(C)OC5C(O)C3O)C3COC(=O)C23)OCO4)cc(OC)c1O` (stereo unspecified) + Cc1cnc(CNC(=O)c2c(=O)c3ccc(N4CCCN(C)CC4)nc3n3c2sc2ccccc23)cn1 has an IC50 (second compound 0.0316 µM) of over 10000 nM, an IC50 (second compound 0.1 µM) of over 10000 nM and an IC50 (second compound 0.316 µM) of 5740 nM. It also gave an IC50 (second compound 1 µM) of over 10000 nM, an IC50 (second compound 3.16 µM) of over 10000 nM and an IC50 (second compound 10 µM) of over 10000 nM. The viability, T/C [1] was 113%, the viability, T/C [2] was 97.7% and the viability, T/C [3] was 101%. For the same compound, the viability, T/C [4] was 60.2%, the viability, T/C [5] was 78.6% and the viability, T/C [6] was 53%. For the same compound, the viability, T/C [7] was 109%, the viability, T/C [8] was 96.5% and the viability, T/C [9] was 84.9%. The viability, T/C [10] was 71.3%, the viability, T/C [11] was 63.2% and the viability, T/C [12] was 76.7%. The viability, T/C [13] was 78%, the viability, T/C [14] was 109% and the viability, T/C [15] was 104%. The viability, T/C [16] was 89.1%, the viability, T/C [17] was 60% and the viability, T/C [18] was 40.9%. For the same compound, the viability, T/C [19] was 88.1%, the viability, T/C [20] was 84.1% and the viability, T/C [21] was 97.3%. For the same compound, the viability, T/C [22] was 101%, the viability, T/C [23] was 75.3% and the viability, T/C [24] was 63.3%. It also gave a viability, T/C [25] of 62.1%, a viability, T/C [26] of 99.2% and a viability, T/C [27] of 104%. It also gave a viability, T/C [28] of 86.2%, a viability, T/C [29] of 76.4% and a viability, T/C [30] of 50.7%. The viability, T/C [31] was 71.4%, the viability, T/C [32] was 84.9% and the viability, T/C [33] was 106%. The viability, T/C [34] was 98.5%, the viability, T/C [35] was 88.6% and the viability, T/C [36] was 69.5%.
`CCCS(=O)(=O)Nc1ccc(F)c(C(=O)c2c[nH]c3ncc(-c4ccc(Cl)cc4)cc23)c1F` + Cc1cnc(CNC(=O)c2c(=O)c3ccc(N4CCCN(C)CC4)nc3n3c2sc2ccccc23)cn1 showed an IC50 (second compound 0.0316 µM) of 1900 nM, an IC50 (second compound 0.1 µM) of 1760 nM and an IC50 (second compound 0.316 µM) of 778 nM. It also gave an IC50 (second compound 1 µM) of 739 nM, an IC50 (second compound 3.16 µM) of 1890 nM and an IC50 (second compound 10 µM) of 1460 nM. For the same compound, the viability, T/C [1] was 77.7%, the viability, T/C [2] was 50.8% and the viability, T/C [3] was 67.3%. It also gave a viability, T/C [4] of 44.8%, a viability, T/C [5] of 56.2% and a viability, T/C [6] of 22.2%. For the same compound, the viability, T/C [7] was 73.8%, the viability, T/C [8] was 64.7% and the viability, T/C [9] was 76.1%. The viability, T/C [10] was 40.8%, the viability, T/C [11] was 53.1% and the viability, T/C [12] was 21.6%. For the same compound, the viability, T/C [13] was 93.5%, the viability, T/C [14] was 56.2% and the viability, T/C [15] was 60%. For the same compound, the viability, T/C [16] was 45.7%, the viability, T/C [17] was 55.2% and the viability, T/C [18] was 21.8%. The viability, T/C [19] was 84.3%, the viability, T/C [20] was 62.7% and the viability, T/C [21] was 48.4%. The viability, T/C [22] was 56.3%, the viability, T/C [23] was 48.2% and the viability, T/C [24] was 27.7%. For the same compound, the viability, T/C [25] was 82.7%, the viability, T/C [26] was 58.6% and the viability, T/C [27] was 62.2%. For the same compound, the viability, T/C [28] was 64.7%, the viability, T/C [29] was 42.8% and the viability, T/C [30] was 26.1%. It also gave a viability, T/C [31] of 83.6%, a viability, T/C [32] of 74.2% and a viability, T/C [33] of 68.8%. For the same compound, the viability, T/C [34] was 44%, the viability, T/C [35] was 51.5% and the viability, T/C [36] was 26.9%.
